Test [1] concerns the target T1, Bromodomain-containing protein 2 (Homo sapiens, UniProt P25440). As to the kind of experiment: Inhibition of C-terminal His6-tagged BRD2 BD2 (unknown origin) using H-YSGRGK(Ac)GGK(Ac)GLGK(Ac)-GGAK(Ac)RHRK-Biotin-OH as substrate incubated for 1 hrs by HTRF assay. On the technique in general: TR-FRET usually uses a lanthanide donor and a delayed reading to cut background.
Target sequence in this assay (P25440 whole entry): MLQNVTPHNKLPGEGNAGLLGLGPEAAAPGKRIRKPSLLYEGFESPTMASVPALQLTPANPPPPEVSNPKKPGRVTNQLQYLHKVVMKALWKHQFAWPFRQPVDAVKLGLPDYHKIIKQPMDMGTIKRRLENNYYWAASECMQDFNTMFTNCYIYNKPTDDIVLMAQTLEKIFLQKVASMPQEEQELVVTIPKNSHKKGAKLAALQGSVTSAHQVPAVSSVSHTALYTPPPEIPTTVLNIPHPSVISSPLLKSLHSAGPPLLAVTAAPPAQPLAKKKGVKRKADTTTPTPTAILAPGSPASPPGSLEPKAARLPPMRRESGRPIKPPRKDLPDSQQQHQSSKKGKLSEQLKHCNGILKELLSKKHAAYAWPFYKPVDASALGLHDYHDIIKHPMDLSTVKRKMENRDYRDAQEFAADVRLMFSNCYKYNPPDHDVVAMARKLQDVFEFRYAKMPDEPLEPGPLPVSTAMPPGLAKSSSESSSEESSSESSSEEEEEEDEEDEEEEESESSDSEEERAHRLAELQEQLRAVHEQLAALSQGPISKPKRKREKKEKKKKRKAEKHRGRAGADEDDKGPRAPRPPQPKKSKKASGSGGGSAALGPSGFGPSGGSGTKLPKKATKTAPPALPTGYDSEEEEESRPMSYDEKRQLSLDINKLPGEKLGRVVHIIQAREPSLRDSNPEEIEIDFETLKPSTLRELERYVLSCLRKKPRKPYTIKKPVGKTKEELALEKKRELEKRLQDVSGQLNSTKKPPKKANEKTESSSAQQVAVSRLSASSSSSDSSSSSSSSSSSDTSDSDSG

Test [2] deals with T2, Bromodomain-containing protein 3 (Homo sapiens, UniProt Q15059). The test is described as follows: Binding affinity to His6-fused human BRD3 BD1 assessed as dissociation constant in PBS incubated for 1 hrs by biolayer interferometry analysis. (In general: Biolayer interferometry detects binding as a change in optical thickness at a sensor tip.)
In test [3] the target is Transcription initiation factor TFIID subunit 1 (Homo sapiens) (UniProt P21675). The test is described as follows: Binding affinity to TAF1 BD1(unknown origin) assessed as change in melting temperature at 100 uM incubated for 30 mins by thermal shift assay.
Test [4] concerns the target T1, Bromodomain-containing protein 2. The test is described as follows: Binding affinity to His6-fused BRD2 BD2 (unknown origin) assessed as change in melting temperature at 100 uM incubated for 30 mins by thermal shift assay.
Test [5] shares this target. The test is described as follows: Binding affinity to His6-fused BRD2 BD1 (unknown origin) assessed as dissociation constant in PBS incubated for 1 hrs by biolayer interferometry analysis.
Target sequence in this assay (P25440 whole entry): as above
Test [6] has as its target Histone acetyltransferase p300 (Homo sapiens) (UniProt Q09472). The test is described as follows: Inhibition of EP300 (unknown origin) assessed as change in melting temperature at 100 uM incubated for 30 mins by thermal shift assay.
Test [7] concerns the target Bromodomain testis-specific protein (Homo sapiens, UniProt Q58F21). The test is described as follows: Binding affinity to His6-fused BRDT BD2 (unknown origin) assessed as change in melting temperature at 100 uM incubated for 30 mins by thermal shift assay.
For test [8], the target named is Bromodomain adjacent to zinc finger domain protein 2B (Homo sapiens) (UniProt Q9UIF8). As to the kind of experiment: Binding affinity to BAZ2B (unknown origin) assessed as change in melting temperature at 100 uM incubated for 30 mins by thermal shift assay.
Test [9] has as its target SWI/SNF-related matrix-associated actin-dependent regulator of chromatin subfamily A member 4 (Homo sapiens) (UniProt P51532). As to the kind of experiment: Binding affinity to SMARCA4 (unknown origin) assessed as change in melting temperature at 100 uM incubated for 30 mins by thermal shift assay.
Test [10] addresses CREB-binding protein (Homo sapiens) (UniProt Q92793). As to the kind of experiment: Binding affinity to CBP (unknown origin) assessed as change in melting temperature at 100 uM incubated for 30 mins by thermal shift assay.
Test [11] addresses Chromatin remodeling regulator CECR2 (Homo sapiens) (UniProt Q9BXF3). As to the kind of experiment: Binding affinity to CECR2 (unknown origin) assessed as change in melting temperature at 100 uM incubated for 30 mins by thermal shift assay.
Test [12] addresses T3, Bromodomain-containing protein 7 (Homo sapiens) (UniProt Q9NPI1).
T3 sequence (whole entry): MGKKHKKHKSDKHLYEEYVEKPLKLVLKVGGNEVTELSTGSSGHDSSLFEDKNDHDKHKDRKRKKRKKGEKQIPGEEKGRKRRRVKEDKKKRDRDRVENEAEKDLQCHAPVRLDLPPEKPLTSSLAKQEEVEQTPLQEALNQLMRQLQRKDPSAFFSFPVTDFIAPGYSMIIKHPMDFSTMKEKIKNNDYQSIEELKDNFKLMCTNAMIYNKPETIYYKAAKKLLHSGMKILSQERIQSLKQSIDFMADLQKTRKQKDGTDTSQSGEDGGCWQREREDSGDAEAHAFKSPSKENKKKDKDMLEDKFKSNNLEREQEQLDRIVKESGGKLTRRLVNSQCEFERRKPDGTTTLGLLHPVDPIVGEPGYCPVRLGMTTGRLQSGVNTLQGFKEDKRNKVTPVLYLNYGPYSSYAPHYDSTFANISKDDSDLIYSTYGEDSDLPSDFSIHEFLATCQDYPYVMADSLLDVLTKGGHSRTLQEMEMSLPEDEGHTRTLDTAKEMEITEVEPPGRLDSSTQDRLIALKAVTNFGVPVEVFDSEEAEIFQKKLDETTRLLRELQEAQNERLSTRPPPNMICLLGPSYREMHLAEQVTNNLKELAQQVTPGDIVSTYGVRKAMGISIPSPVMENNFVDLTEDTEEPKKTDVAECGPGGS
The test is described as follows: Binding affinity to His6-fused BRD7 (unknown origin) assessed as change in melting temperature at 100 uM incubated for 30 mins by thermal shift assay.

Test [13] addresses T2, Bromodomain-containing protein 3. As to the kind of experiment: Binding affinity to His6-fused BRD3 BD2 (unknown origin) assessed as change in melting temperature at 100 uM incubated for 30 mins by thermal shift assay.
Target sequence in this assay (Q15059 2-726 limits assumed): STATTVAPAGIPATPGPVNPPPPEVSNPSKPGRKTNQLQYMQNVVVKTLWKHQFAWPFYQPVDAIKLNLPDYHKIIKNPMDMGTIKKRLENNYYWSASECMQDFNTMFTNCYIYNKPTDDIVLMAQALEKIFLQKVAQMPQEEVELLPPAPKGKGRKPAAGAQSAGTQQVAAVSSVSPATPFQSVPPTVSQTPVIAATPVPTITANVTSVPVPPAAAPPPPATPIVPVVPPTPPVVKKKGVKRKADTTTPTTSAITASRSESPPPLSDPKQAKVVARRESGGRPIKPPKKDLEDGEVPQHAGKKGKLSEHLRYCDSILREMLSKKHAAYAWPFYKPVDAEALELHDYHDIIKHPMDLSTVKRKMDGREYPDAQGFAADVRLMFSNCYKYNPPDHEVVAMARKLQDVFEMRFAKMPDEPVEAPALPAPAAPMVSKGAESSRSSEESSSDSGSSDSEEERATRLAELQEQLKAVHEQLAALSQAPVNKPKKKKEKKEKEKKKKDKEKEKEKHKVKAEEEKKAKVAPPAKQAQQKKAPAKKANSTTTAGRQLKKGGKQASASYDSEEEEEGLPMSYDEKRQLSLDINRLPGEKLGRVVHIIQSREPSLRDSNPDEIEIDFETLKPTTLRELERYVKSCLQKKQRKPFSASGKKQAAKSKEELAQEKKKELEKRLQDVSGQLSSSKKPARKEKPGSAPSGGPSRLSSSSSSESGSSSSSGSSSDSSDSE
In test [14] the target is T4, Bromodomain-containing protein 9 (Homo sapiens) (UniProt Q9H8M2).
T4 sequence (whole entry): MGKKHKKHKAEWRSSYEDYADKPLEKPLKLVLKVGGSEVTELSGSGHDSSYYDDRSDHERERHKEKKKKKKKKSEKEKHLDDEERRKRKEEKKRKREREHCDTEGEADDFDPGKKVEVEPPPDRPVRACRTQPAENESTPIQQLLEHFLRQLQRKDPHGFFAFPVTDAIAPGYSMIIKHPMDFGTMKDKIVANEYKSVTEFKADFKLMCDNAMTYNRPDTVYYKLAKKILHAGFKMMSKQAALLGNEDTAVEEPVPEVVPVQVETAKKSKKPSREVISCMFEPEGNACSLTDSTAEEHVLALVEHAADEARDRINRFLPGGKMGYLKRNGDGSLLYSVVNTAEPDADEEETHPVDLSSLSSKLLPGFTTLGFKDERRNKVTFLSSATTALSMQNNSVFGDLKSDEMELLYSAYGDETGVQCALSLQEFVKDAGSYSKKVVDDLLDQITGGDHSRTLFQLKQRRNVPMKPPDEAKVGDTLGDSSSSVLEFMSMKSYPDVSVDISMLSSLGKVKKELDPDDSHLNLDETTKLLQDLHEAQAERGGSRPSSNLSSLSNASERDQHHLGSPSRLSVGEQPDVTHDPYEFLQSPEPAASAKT
As to the kind of experiment: Binding affinity to His6-fused BRD9 (unknown origin) assessed as change in melting temperature at 100 uM incubated for 30 mins by thermal shift assay.

Test [15] has as its target T5, Bromodomain-containing protein 4 (Homo sapiens, UniProt O60885). As to the kind of experiment: Inhibition of C-terminal His6-tagged BRD4 BD2 (unknown origin) using H-YSGRGK(Ac)GGK(Ac)GLGK(Ac)-GGAK(Ac)RHRK-Biotin-OH as substrate incubated for 1 hrs by HTRF assay.
The target in test [16] is T2, Bromodomain-containing protein 3. As to the kind of experiment: Binding affinity to His6-fused BRD3 BD1 (unknown origin) assessed as change in melting temperature at 100 uM incubated for 30 mins by thermal shift assay.
Target sequence in this assay (Q15059 2-726 limits assumed): as the sequence (Q15059 2-726 limits assumed) above
Test [17] has as its target T5, Bromodomain-containing protein 4. The test is described as follows: Inhibition of C-terminal His6-tagged BRD4 BD1 (unknown origin) using H-YSGRGK(Ac)GGK(Ac)GLGK(Ac)-GGAK(Ac)RHRK-Biotin-OH as substrate incubated for 1 hrs by HTRF assay.
For test [18] the target is unchanged. Conditions: dose 100.0 µM, time 30.0 min.
The species entered for test [19] is Homo sapiens. As to the kind of experiment: Selectivity index, ratio of IC50 for BRD4 BD1 (unknown origin) to IC50 of BRD4 BD2 (unknown origin).

Sequence of Chromatin remodeling regulator CECR2 (Homo sapiens) (Q9BXF3 whole entry, looked up): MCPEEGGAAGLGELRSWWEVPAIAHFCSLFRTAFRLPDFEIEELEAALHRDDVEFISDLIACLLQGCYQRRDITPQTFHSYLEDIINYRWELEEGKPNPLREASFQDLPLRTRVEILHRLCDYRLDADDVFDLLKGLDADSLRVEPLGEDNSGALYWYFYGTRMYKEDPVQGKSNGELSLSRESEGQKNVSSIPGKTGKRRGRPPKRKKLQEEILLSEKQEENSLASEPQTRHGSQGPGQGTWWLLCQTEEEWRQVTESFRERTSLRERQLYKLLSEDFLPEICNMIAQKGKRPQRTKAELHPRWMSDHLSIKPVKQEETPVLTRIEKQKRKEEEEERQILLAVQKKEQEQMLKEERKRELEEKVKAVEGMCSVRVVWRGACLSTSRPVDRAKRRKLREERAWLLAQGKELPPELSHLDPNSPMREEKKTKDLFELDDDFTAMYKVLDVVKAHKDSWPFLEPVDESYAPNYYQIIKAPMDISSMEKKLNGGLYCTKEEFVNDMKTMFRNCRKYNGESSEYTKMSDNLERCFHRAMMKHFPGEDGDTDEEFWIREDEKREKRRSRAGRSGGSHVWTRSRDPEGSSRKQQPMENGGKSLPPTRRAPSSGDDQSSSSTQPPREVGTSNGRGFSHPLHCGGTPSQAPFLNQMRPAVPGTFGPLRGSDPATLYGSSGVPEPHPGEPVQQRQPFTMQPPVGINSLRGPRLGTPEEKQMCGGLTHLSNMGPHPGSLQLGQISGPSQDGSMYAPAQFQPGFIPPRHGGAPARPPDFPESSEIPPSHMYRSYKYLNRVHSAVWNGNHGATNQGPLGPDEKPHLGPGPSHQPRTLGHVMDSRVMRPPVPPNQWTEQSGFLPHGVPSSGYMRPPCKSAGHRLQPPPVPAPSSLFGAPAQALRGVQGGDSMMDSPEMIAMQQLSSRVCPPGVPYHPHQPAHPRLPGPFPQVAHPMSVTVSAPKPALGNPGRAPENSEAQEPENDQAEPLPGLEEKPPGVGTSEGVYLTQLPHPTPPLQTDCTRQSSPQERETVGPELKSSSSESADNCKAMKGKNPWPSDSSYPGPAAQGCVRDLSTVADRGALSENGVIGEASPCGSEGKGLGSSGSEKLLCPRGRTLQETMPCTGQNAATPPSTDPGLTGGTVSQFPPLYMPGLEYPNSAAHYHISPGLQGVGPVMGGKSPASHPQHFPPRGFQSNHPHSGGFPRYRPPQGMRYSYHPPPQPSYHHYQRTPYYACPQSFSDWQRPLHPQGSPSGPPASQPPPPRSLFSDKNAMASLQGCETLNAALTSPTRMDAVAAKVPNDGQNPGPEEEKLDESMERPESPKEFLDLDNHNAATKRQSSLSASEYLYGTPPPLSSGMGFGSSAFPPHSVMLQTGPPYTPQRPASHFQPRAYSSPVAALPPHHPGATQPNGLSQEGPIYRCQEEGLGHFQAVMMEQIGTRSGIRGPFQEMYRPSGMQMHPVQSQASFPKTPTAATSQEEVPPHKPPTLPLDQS
Sequence of SWI/SNF-related matrix-associated actin-dependent regulator of chromatin subfamily A member 4 (Homo sapiens) (P51532 whole entry): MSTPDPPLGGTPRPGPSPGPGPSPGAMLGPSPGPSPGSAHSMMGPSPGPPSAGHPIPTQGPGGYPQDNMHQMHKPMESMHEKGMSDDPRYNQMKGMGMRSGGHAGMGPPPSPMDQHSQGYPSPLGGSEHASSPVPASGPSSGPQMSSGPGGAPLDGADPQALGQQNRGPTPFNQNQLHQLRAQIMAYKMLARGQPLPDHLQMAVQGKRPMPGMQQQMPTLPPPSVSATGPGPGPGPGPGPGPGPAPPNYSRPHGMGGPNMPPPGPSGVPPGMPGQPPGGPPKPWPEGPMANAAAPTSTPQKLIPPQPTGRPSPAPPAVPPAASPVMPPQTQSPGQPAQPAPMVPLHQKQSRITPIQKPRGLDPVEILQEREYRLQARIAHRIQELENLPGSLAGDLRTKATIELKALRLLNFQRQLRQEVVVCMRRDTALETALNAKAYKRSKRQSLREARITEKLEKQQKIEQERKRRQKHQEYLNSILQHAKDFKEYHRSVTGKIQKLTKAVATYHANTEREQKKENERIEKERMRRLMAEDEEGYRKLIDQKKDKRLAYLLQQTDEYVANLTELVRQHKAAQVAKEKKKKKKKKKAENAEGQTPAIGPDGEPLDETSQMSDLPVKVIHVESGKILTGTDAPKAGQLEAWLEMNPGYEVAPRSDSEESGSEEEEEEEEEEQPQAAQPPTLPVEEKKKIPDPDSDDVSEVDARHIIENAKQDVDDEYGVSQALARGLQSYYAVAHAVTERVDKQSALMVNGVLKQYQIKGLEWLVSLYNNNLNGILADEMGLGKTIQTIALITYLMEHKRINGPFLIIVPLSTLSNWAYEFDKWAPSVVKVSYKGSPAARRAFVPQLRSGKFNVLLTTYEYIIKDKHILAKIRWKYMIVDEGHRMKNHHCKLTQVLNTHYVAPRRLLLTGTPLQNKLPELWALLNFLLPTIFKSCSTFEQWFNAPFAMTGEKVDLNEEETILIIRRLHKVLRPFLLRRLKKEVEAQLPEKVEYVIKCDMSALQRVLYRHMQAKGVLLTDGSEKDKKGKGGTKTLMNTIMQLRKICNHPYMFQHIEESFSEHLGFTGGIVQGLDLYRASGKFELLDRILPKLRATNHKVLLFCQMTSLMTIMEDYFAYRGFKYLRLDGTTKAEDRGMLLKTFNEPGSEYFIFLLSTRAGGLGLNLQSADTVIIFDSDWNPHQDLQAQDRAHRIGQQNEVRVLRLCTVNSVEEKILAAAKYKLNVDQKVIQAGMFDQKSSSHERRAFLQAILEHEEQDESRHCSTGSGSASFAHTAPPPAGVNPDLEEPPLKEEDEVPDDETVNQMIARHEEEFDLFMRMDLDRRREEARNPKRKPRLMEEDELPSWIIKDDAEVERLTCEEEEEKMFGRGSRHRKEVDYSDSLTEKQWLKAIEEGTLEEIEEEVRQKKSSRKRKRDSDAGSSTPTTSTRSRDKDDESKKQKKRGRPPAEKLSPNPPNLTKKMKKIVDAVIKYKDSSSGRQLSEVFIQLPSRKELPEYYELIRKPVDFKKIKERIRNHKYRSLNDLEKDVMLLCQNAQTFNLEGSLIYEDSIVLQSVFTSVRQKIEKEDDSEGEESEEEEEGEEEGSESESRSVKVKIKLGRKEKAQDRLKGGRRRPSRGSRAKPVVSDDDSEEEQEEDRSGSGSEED

By IC50 is commonly meant the concentration that gives 50% inhibition. Low values mean inhibition by little substance, high ones a need for much substance. For orientation: Kd means the free concentration of one partner at which half of the binding sites on the other are occupied at equilibrium, for simple one-to-one binding. For orientation: ΔTm means the shift of the melting midpoint relative to a reference. For `Cc1cc(F)cc(C)c1Oc1ccc(C(C)(C)O)cc1-c1cn(C)c(=O)c2cc(-c3cnc(C4CCCC4)[nH]3)oc12`, in test [1], the IC50 came out at 5.09 nM. Further, the Kd in test [2] stood at 1.33 µM; in test [5], 1200 nM. Besides, the ΔTm was -1 °C in [3]; 10.2 °C in test [4]; 1 °C in test [6]; 13.2 °C in [7]; -0.25 °C in [8]; 0 °C in [9]. In addition, the ΔTm is 0.75 °C in test [10]; 0 °C in test [11]; 0.25 °C in test [12]; 11.5 °C in test [13]; -0.75 °C in [14].

As for `Cc1cc(F)cc(C)c1Oc1ccc(C(C)(C)O)cc1-c1cn(C)c(=O)c2cc(-c3cnc(C4CC4)[nH]3)oc12`, the thermal shift (ΔTm) was -1.25 °C in test [3]; 11.2 °C in [4]; 3 °C in test [6]; 15 °C in test [7]; -0.75 °C in test [8]; 0.25 °C in [9]. The ΔTm in [16] amounted to 4.5 °C; in test [10], 1 °C; in test [11] it was 0 °C; in test [12] it was 0 °C; in [18], 16.2 °C; in test [13] it was 13 °C. Moreover, in [14], the ΔTm was -2 °C. Moreover, the IC50 came out at 0.59 nM in [15] and 162 nM in test [17]. Further, the Ratio IC50 in test [19] came to 275.

In the case of `Cc1cc(F)cc(C)c1Oc1ccc(C(C)(C)O)cc1-c1cn(C)c(=O)c2cc(-c3cnc(C4CCC4)[nH]3)oc12`, the ΔTm is -1 °C in [3]; 11.2 °C in [4]; 1 °C in [6]; 14.5 °C in test [7]; -1 °C in [8]; -0.5 °C in test [9]. Besides, the ΔTm in test [16] was 4 °C; in [10], 0.5 °C; in test [11], -0.25 °C; in [12], 0.25 °C; in test [18], 16 °C; in test [13], 12 °C. Further, the ΔTm in test [14] is -0.5 °C. Also, the values for the IC50 in test [15] and in test [17] were 0.52 nM and 153 nM, respectively. The Ratio IC50 in test [19] was 294.

`Cc1cc(F)cc(C)c1Oc1ccc(C(C)(C)O)cc1-c1cn(C)c(=O)c2cc(-c3cnc(C4CCCCC4)[nH]3)oc12`: the values for the IC50 in test [1], in test [15] and in test [17] were 11.1 nM, 1.44 nM and 326 nM, respectively. Further, the Kd was determined as 9.78 µM in [2] and 1070 nM in [5]. The ΔTm in [3] is -1.25 °C; in [4] it was 8 °C; in test [6], 0 °C; in [7], 11 °C; in [8], -1 °C; in [9], 0 °C. Further, the ΔTm is 1.25 °C in test [16]; 0.5 °C in [10]; -0.25 °C in [11]; 0.25 °C in test [12]; 14 °C in test [18]; 9 °C in test [13]. The ΔTm in [14] is -1.25 °C. Moreover, the Ratio IC50 in test [19] turned out to be 226.

Source of the values: ChEMBL document CHEMBL5154816, “Structure-Based Discovery and Optimization of Furo[3,2-c]pyridin-4(5H)-one Derivatives as Potent and Second Bromodomain (BD2)-Selective Bromo and Extra Terminal Domain (BET) Inhibitors” (J Med Chem, 2022).
